Data taken from patent publication US10342806B2, “Hormone treatment for age-related hearing loss-presbycusis” (priority 2014, dated 2019).

Columns and labels:
[1] = tested on: iNOS and nNOS; experiment: iNOS and nNOS expression in modiolar tissue samples; assay type: in vivo, mouse; settings: young adult, control middle-aged, ALD-treated middle-aged mice
Experimental: During treatment, blood pressures were measured for the mice at 2 and 4 months after start of treatment. […] Death was confirmed by terminal phlebotomy/exsanguinations and perfusion. Cell lysates were collected and subject to western blot and RT-PCT analysis. The cells were placed in RIPA buffer and sonicated. Protein concentration was measured using the Bradford method. Proteins were separated by SDS-PAGE. The antibodies used for western blot were: anti-iNOS, nNOS and caspase-3 antibodies (Cell Signaling, Cambridge, Mass.). Total cellular RNA was extracted using the RNeasy Plus Mini Kit (74134). For RT-PCR, 10 ng of total cellular RNA was reverse transcribed and complementary DNA was amplified, using the Enhanced Avian HS RT-PCR-100 Kit (Sigma, HSRT20). Primers used for qRT-PCR were as follows: […]

[2] = tested on: LC3-I, -II, and LAMP-2; experiment: Lysosome pathway markers in HT-29 cells, Western blot; assay type: cell-based, human; settings: ALD 1 μM, MG-132 20 μM, CQ 50 μM, 9 h
Experimental: FIG. 23(A) is a blot and showing ubiquitination, but not the lysosome pathway, is involved in the regulation of NKCC1 by ALD. To exclude the possibility that depletion of free ubiquitin by the prolonged MG-132 treatment triggered nonspecific inhibition of lysosome degradation of NKCC1 and investigate whether ALD is involved in a lysosome pathway, a parallel experiment with chloroquine (CQ) was performed. Here, the positive marks (+) indicate application of ALD (1 μM), MG132 (20 μM), CQ (50 μM), ALD+CQ, and MG132+CQ for 9 h. An autophagosome marker, autophagy-related gene 8 named as light chain 3 (LC3), and the lysosome-associated membrane protein 2 (LAMP-2) were used was indicators of lysosome pathway activation (phagocytic activity) under treatment with CQ.
Western blot. Cell lysates were prepared in RIPA buffer (Pierce 89901; Thermo Scientific, Waltham, Mass.) with protease inhibitor cocktail (78430; Thermo Scientific). Cell samples were homogenized in buffer, followed by centrifugation at 2,000 rpm for 10 min at 4° C. Supernatants were subjected to Western blot analysis by loading 200 μg of protein per lane, after the protein concentrations were determined by Bradford protein assay. Proteins were fractionated by SDS-PAGE gel electrophoresis and transferred to a PVDF blotting membrane (Whatman, Piscataway, N.J.). The blot was incubated with primary antibodies against β-actin and Na—K-2C1 cotransport protein (Cell Signaling, Danvers Mass.); primary antibodies for p-SGK1, SGK1, pNedd4-2, and Nedd4-2 were utilized (concentration 1:1,000). The secondary antibody was horseradish peroxidaseconjugated goat anti-rabbit IgG (1:2,000; Cell Signaling).
Ubiquitination, but not the lysosome pathway, is involved in NKCC1 induction by ALD. A parallel experiment was performed with chloroquine (CQ), a lysosome inhibitor, to exclude the possibility that prolonged MG-132 treatment depleted free ubiquitin by nonspecific inhibition of lysosome degradation of NKCC1 and to confirm whether or not ALD is involved in a lysosome pathway. […]

[3] = tested on: NKCC1 mRNA; experiment: NKCC1 mRNA in HT-29 cells, semiquantitative and real-time RT-PCR; assay type: cell-based, human; settings: ALD 1 μM, both RT-PCR methods
Experimental: Relative quantitative RT-PCR. Total RNA was extracted using the RNAeasy Mini Kit (Qiagen, Valencia Calif.). […] Primers used for qRTPCR were as follows: […]
The semiquantitative qRT-PCR reaction took place at 45° C. for 50 min. The competition between primer sets was excluded by adjusting the reaction condition.
Then, the primer products were PCR amplified directly. A first cycle of 10 min. at 95° C., 45 s at 65° C., and 1 min at 72° C. was followed by 45 s at 95° C., 45 s at 65° C., and 1 min at 72° C. for 25 cycles. The conditions were chosen so that the RNAs analyzed were in the exponential phase of amplification. Each set of reactions always included a no-sample negative control. We usually performed a negative control containing RNA instead of cDNA to rule out genomic DNA contamination.
The real-time RT-PCR reaction mixture was prepared using the SYBR-Green PCR Master Mix. Thermal cycling conditions were the same as in the semiquantitative method. Amplification specificity was checked using melting curves. Both negative and positive controls were included in each PCR reaction. All assays were carried out three times as independent PCR runs for each cDNA sample. […] Calculations of expression were performed with the […] method (Bustin, et al., Quantitative real-time RTPCR—a perspective. J Mol Endocrinol 34: 597-601, 2005).

`C[C@]12CCC(=O)C=C1CC[C@@H]1[C@@H]2[C@@H](O)C[C@]2(C=O)[C@@H](C(=O)CO)CC[C@@H]12` [ALD, aldosterone] was tested, and the “iNOS and nNOS gene expression” value [1] was “no alteration in NOS expression”, the iNOS protein levels [1] was “approximately the same” and the “lysosome pathway markers LC3II and LAMP-2 expression levels” value [2] was “without increasing lysosome pathway markers”. For the same molecule, the “NKCC1 mRNA” value [3] was “no mRNA change”.
